Laboratory results as given in ChEMBL document CHEMBL3045349, “A comparative study on the interference of two herbicides in wheat and italian ryegrass and on their antioxidant activities and detoxification rates” (J Agric Food Chem, 2011).

Key:
Shoot = assay: Drug level in Triticum aestivum (wheat) shoots compound administered at rate of 14 mf/flat measured 144 hr post treatment by HPLC; type: ADME
Triticum aestivum [1] = assay: Effect on antioxidant enzyme system in Triticum aestivum (wheat) shoots assessed as glutathione S-transferase activity per mg protein compound administered at rate of 14 mf/flat measured […] post treatment (reference value: 2.4 nmol/s per mg protein); type: functional
Triticum aestivum [2] = assay: Effect on antioxidant enzyme system in Triticum aestivum (wheat) shoots assessed as glutathione S-transferase activity per mg protein compound administered at rate of 14 mf/flat measured 24 hr post treatment (reference value: 2.7 nmol/s per mg protein); type: functional
Triticum aestivum [3] = assay: Effect on antioxidant enzyme system in Triticum aestivum (wheat) shoots assessed as glutathione reductase activity per mg protein compound administered at rate of 14 mf/flat measured 48 hr post treatment (reference value: 1.1 nmol/s per mg protein); type: functional
Lolium multiflorum [4] = assay: Increase in MDA content in Lolium multiflorum (Italian ryegrass) shoots compound administered at rate of 14 mf/flat measured 24 hr post treatment; type: functional
Triticum aestivum [5] = assay: Reduction in glutathione S-transferase activity in Triticum aestivum (wheat) shoots compound administered at rate of 14 mf/flat measured 48 hr post treatment; type: functional; set-up: scale not given: the % may be the effect or the level left
Lolium multiflorum [6] = assay: Increase in antioxidant enzyme system in Lolium multiflorum (Italian ryegrass) shoots shoots assessed as increase in glutathione reductase activity compound administered at rate of 14 mf/flat measured 24 hr post treatment; type: functional
Triticum aestivum [7] = assay: Increase in antioxidant enzyme system in Triticum aestivum (wheat) shoots assessed as increase in glutathione reductase activity compound administered at rate of 14 mf/flat measured 24 hr post treatment; type: functional
Lolium multiflorum [8] = assay: Effect on antioxidant enzyme system in Lolium multiflorum (Italian ryegrass) shoots assessed as ascorbate peroxidase activity per mg protein compound administered at rate of 14 mf/flat measured 48 hr post treatment (reference value: 11.3 nmol/s per mg protein); type: functional
Triticum aestivum [9] = assay: Effect on antioxidant enzyme system in Triticum aestivum (wheat) shoots assessed as ascorbate peroxidase activity per mg protein compound administered at rate of 14 mf/flat measured 72 hr post treatment (reference value: 17.2 nmol/s per mg protein); type: functional
Triticum aestivum [10] = assay: Increase in antioxidant enzyme system in Triticum aestivum (wheat) shoots assessed as increase in ascorbate peroxidase activity compound administered at rate of 14 mf/flat measured 24 hr post treatment; type: functional
Triticum aestivum [11] = assay: Effect on photosynthetic activity in Triticum aestivum (wheat) shoots assessed as dark respiration rate measured by CO2 production compound administered at rate of 14 mf/flat measured 72 hr post treatment (reference value: -1.07 umol/m2/s); type: functional
Triticum aestivum [12] = assay: Effect on photosynthetic activity in Triticum aestivum (wheat) shoots assessed as dark respiration rate measured by CO2 production compound administered at rate of 14 mf/flat measured 48 hr post treatment (reference value: -1.43 umol/m2/s); type: functional
Lolium multiflorum [13] = assay: Increase in antioxidant enzyme system in Lolium multiflorum (Italian ryegrass) shoots assessed as increase in dehydroascorbate reductase activity compound administered at rate of 14 mf/flat measured 48 hr post treatment; type: functional
Lolium multiflorum [14] = assay: Increase in antioxidant enzyme system in Lolium multiflorum (Italian ryegrass) shoots assessed as increase in ascorbate peroxidase activity compound administered at rate of 14 mf/flat measured 72 hr post treatment; type: functional

Row | Structure (SMILES) | Drug uptake (Shoot) [ppm] | Activity (Triticum aestivum [1]) [nmol/s/mg protein] | Activity (Triticum aestivum [2]) [nmol/s/mg protein] | Activity (Triticum aestivum [3]) [nmol/s/mg protein] | Activity (Lolium multiflorum [4]) [%] | Activity (Triticum aestivum [5]) [%] | Activity (Lolium multiflorum [6]) [%] | Activity (Triticum aestivum [7]) [%] | Activity (Lolium multiflorum [8]) [nmol/s/mg protein] | Activity (Triticum aestivum [9]) [nmol/s/mg protein] | Activity (Triticum aestivum [10]) [%] | Activity (Triticum aestivum [11]) [micromol/m2/s] | Activity (Triticum aestivum [12]) [micromol/m2/s] | Activity (Lolium multiflorum [13]) [%] | Activity (Lolium multiflorum [14]) [%]
1 | CCNc1nc(Cl)nc(NC(C)C)n1 [ATRAZINE] | 0.35 | 2.5 | 1.7 | 1.1 | 25 | 26 | 27 | 36 | 14.2 | 18 | 40 | – | – | – | –
2 | O=[N+]([O-])c1ccc(Oc2ccc(C(F)(F)F)cc2[N+](=O)[O-])cc1 [FLUORODIFEN] | – | 2.3 | 2.3 | 1.2 | – | – | 72 | 36 | 15.3 | 17.2 | 46 | -0.94 | -0.77 | 19 | 21
